From patent US20060025471A1, “Xanthenyl cubane analogs with activity at the metabotropic glutamate receptors” (priority 2002, published 2006)

Columns and labels:
[1] = Functional observational battery (side effect profile); format: in vivo
From the text: The side effect profile for an intra-peritoneally administered thioxanthenyl cubane (Compound 6) was examined and compared to diazepam using functional observational battery which is a series of observational markers designed to indicate level of impairment. The greater the functional observational battery score, the greater the impairment.

fear potentiated startle = experiment: Fear potentiated startle model; format: in vivo, rats
From the text: The fear potentiated startle model permits measurement of learned fear of a stimulus that has been paired with repeated foot shocks. The effect of a candidate compound on fear potentiated startle can be compared with a known standard such as diazepam and a negative control (such as buffer only). The fear potentiated startle test can be conducted at various time points following administration of a candidate compound.
The anxiolytic properties of a thioxanthenyl cubane (Compound 6) were examined using the fear potentiated startle model. This model permits measurement of learned fear of a stimulus that has been paired with repeated foot shocks. The effect of Compound 6 on fear potentiated startle was compared with the known standard, diazepam. All tests were run 30 min after intraperitoneal drug administration. Compound 6 was administered at 1.0, 3.0, 10 and 15 mg/kg in rats.
The oral bioavailability and efficacy of a thioxanthenyl cubane (Compound 6) was studied using the fear potentiated startle model. Compound 6 was administered by gavage at a dose of 12 mg/kg. Following a 90 minute period allowed for drug absorption, the oral efficacy was examined using the fear potentiated startle model. As shown in FIG. 8 oral Compound 6 was effective in reducing the fear potentiated startle model.
The onset and duration of a thioxanthenyl cubane (Compound 6) was studied using the fear potentiated startle model. Thioxanthenyl cubane was administered by gavage at a dose of 15 mg/kg. The effect of oral Compound 6 on fear potentiated startle was examined at 30 minutes, 1, 2, 4, 6 and 8 hours post drug administration.

elevated plus maze = experiment: Elevated plus maze test; format: in vivo, rat
From the text: The anxiolytic properties of candidate compounds can be further evaluated using the elevated plus maze test. This test is dependent on the predisposition of rodents to remain in the dark and offers the choice between dark areas of the maze and the opportunity to explore lighted areas. The effect of a candidate compound on the elevated plus maze test can be compared with a known standard such as diazepam and a negative control (such as buffer only). The elevated maze plus test can be conducted at various time points following administration of the candidate compound.
To further examine the anxiolytic properties of a thioxanthenyl cubane (Compound 6), the elevated plus maze test was conducted. The elevated plus maze test is sensitive to benzodiazepine type anxiolytics while other anxiolytics such as the serotonin reuptake inhibitors (SSRIs) show poor efficacy in this test. This test is dependent on the predisposition of rodents to remain in the dark and offers the choice between dark areas of the maze and the opportunity to explore lighted areas.

[2] = Asymmetric grid test (impairment of motor function); format: in vivo; settings: 4 mg/kg; compared to the null experiment
Experimental: To further examine the side effect of profile of Compound 6 the assymmetric grid test was conducted to measure impairment of motor function. Briefly, in the assymetric grid test the animal is placed on one side of a grid pattern, designed to challenge the animals motor function. On the other side of the grid is the animal's home cage or a reward. As the animal enters the grid it is monitored for mistakes by a camera placed horizontally in line with the grid. The camera records the number of forelimb and hindlimb intrusions through the grid and the higher the number, the greater the impairment.

social interaction = experiment: Social interaction studies; format: in vivo, rat
Experimental: The effect of a candidate compound on social interaction can also be examined in rodents. Briefly, social interaction can be measured as follows: a strange intruder is introduced into the cage of an acclimatized treated rat and the number of times the rat either bites (# bites) or wrestles (# pins) the intruder is determined. The effect of a candidate compound on social interaction can be compared with a known standard such as diazepam and a negative control (such as buffer only). The social interaction test can be conducted at various time points following administration of the candidate compound.
The effect of a thioxanthenyl cubane (Compound 6) on social interaction was examined in rodents. Briefly, social interaction is measured as follows: a strange intruder is introduced into the cage of an acclimatized treated rat and the number of times the rat either bites (# bites) or wrestles (# pins) the intruder is determined. Compound 6 was administered at three doses and compared to saline and diazepam at 2 mg/kg.

fear induced freezing = experiment: Fear induced freezing model; format: in vivo, rat; settings: diazepam at 3 mg/kg; for reduction in freezing, context alone: environment alone; for reduction in freezing, context plus tone: environment with conditioning sound
From the text: The anxiolytic properties of a candidate compound can also be examined using the fear induced freezing model. Briefly, this test relies on the induction of a well known effect in rats when they are challenged. The rat is subjected to a mild shock associated with a sound which results in the animal becoming very still when expecting that shock. The effect of a candidate compound on fear induced freezing can be compared with a known standard such as diazepam and a negative control (such as buffer only). The fear induced freezing test can be conducted at various time points following administration of the candidate compound.
The anxiolytic properties of a thioxanthenyl cubane (Compound 6) were also examined using the fear induced freezing model. Briefly, this test relies on the induction of a well known effect in rats when they are challenged. The rat is subjected to a mild shock associated with a sound which results in the animal becoming very still when expecting that shock.
The animal is placed in its home cage for acclimatization before being placed back in the test environment in the presence or absence of test compound. The reduction in freezing is used as a measure of anxiolysis. […] The second paradigm (context plus tone) produces a larger and more difficult to overcome anxiety.

[3] = test system: rat global ischemia model; experiment: Rat global ischemia model; format: in vivo; settings: 1 mg/kg intra-peritoneal post ischemic insult
From the text: The neuroprotective effects of a candidate compound can also be evaluated in a number of in vivo animal models including, the rat global ischemia model. Briefly, two of the four cerebral arteries are permanently occluded and surgical silk is loosely placed around the remaining two cerebral arteries. Temporary tightening of the surgical silk leads to 4 vessel occlusion and temporary global ischemia. At various time points after ischemic insult the brain can be removed and examined for ischemic injury.
The neuroprotective effects of a thioxanthenyl cubane (Compound 6) were examined in vivo using the rat global ischemia model. Briefly, two of the four cerebral arteries are permanently occluded and surgical silk is loosely placed around the remaining two cerebral arteries. Temporary tightening of the surgical silk leads to 4 vessel occlusion and temporary global ischemia. Seven days post ischemic insult, the brain is removed and the CA1 region of the hippocampus, a region very suspectible to ischemic damage, is examined.

[4] = test system: Cultured hippocampal pyramindal neurons; experiment: In vitro anoxia study, neuronal cell death; format: cell-based; settings: 30 minutes anoxia; counts 24 hours post anoxic exposure
From the text: The ability of a candidate compound to inhibit neuronal cell death can be examined using an in vitro anoxia study. […] A candidate compound can be administered to the neuronal cell culture at various time points prior to exposure to the anoxic condition to examine the prophylactic activity of the compound or during or after exposure to the anoxic condition to examine therapeutic activity of the compound. Suitable negative controls include, for example, buffer in place of the candidate compound.
The neuroprotective effects of a thioxanthenyl cubane (Compound 6) were examined using an in vitro anoxia study. Cultured hippocampal pyramindal neurons were exposed to anoxic conditions (oxygen free buffer) for 30 minutes. Twenty-four hours post anoxic exposure cell counts were conducted manually.

focal ischemia model = experiment: Starch microsphere infusion focal ischemia model; format: in vivo, rat
Experimental: Alternatively, the starch microsphere infusion focal ischemia model can be used. Briefly, starch microspheres are injected unilaterally into one of the carotid arteries. Blood flow is temporarily occluded on the injected side for approximately 30 minutes. Reperfusion occurs after the initial starch clot is resolved. At various time points after ischemic insult the brain can be removed and examined for ischemic injury.
The compounds of the present invention have been evaluated in a rat model of focal ischemia which is similar to that seen in strokes in humans. Briefly, starch microspheres are injected unilaterally into one of the carotid arteries. Blood flow is temporarily occluded on the injected side for approximately 30 minutes. Reperfusion occurs after the initial starch clot is resolved. The test compound is administered either prophylactically before vessel occlusion or therapeutically post vessel occlusion.
The neuroprotective effects of a thioxanthenyl cubane (Compound 6) were further examined using a starch microsphere infusion focal ischemia model. Briefly, starch microspheres are injected unilaterally into one of the carotid arteries. Blood flow is temporarily occluded on the injected side for approximately 30 minutes. Reperfusion occurs after the initial starch clot is resolved.
Compound 6 was intra-peritoneally administered at dosages of 0.1, 1.0, and 10 mg/kg either prophylactically or therapeutically. The prophylactic dose schedule included a dose of Compound 6 administered 30 minutes prior to ischemic insult followed by doses at 30 minutes and 3 hours post insult. For therapeutic administration, Compound 6 was administered 3 hours post insult only. […] In addition to providing substantial neuroprotection, Compound 6 reduced the incidence of seizures following ischemic insult in a dose-dependent manner.

In the case of `CN1C(=O)CN=C(c2ccccc2)c2cc(Cl)ccc21` [diazepam, reference compound], the “impairment, functional observational battery score” value ([1]; intra-peritoneal, high doses (Compound 6 very high doses)) is reported as “large degree of impairment”, the “effective oral dose level in fear potentiated startle” value (fear potentiated startle; oral dose response (FIG. 9)) is reported as 7 mg/kg and the “time spent in the exposed (open, light) area of the maze” value (elevated plus maze; 2 mg/kg) is reported as “clear increase”. The “number of forelimb and hindlimb mistakes” value [2] was “increases significantly”, the number of bites (social interaction; 2 mg/kg) was “clear reduction” and the number of pins (social interaction; 2 mg/kg) was “clear reduction”. The “reduction in freezing, context alone” value (fear induced freezing) was “effective” and the “reduction in freezing, context plus tone” value (fear induced freezing) was “only effective in the less stringent first paradigm”.

In the case of `NC(CC1c2ccccc2Sc2ccccc21)(C(=O)O)C12C3C4C1C1C2C3C41C(=O)O` (stereo not shown) [Compound 6, 4-carboxycubane-1-thioxanthenyl-1-glycine], the “ischemic damage to the CA1 region of the hippocampus vs untreated ischemic animals” value ([3]; 7 days) is reported as “reduction in ischemic damage”, the “reduction in cell death” value ([3]; 7 days after the procedure) is reported as “greater than 50%” and the “impairment, functional observational battery score” value ([1]; in vivo) is reported as “this level of impairment was not observed”. The “oral efficacy on fear potentiated startle” value (fear potentiated startle; gavage 12 mg/kg, 90 minute absorption period) was “effective”, the “onset of effect on fear potentiated startle” value (fear potentiated startle; gavage 15 mg/kg) was 30 min and the “time of maximum effect on fear potentiated startle” value (fear potentiated startle; gavage 15 mg/kg) was 4 h. The “time of return of effect to base line” value (fear potentiated startle; gavage 15 mg/kg) was 8 h, the “effect on fear potentiated startle” value (fear potentiated startle; intraperitoneal 1.0, 3.0, 10 and 15 mg/kg, 30 min after administration) was “dose dependent reduction” and the “effect on fear potentiated startle at the highest dose” value (fear potentiated startle; intraperitoneal, highest dose (15 mg/kg)) was “tendency to reverse the effect”. The “dose of apparent maximum reduction in fear potentiated startle” value (fear potentiated startle; intraperitoneal, 30 min after administration) was 3 mg/kg, the “time spent in the exposed (open, light) area of the maze” value (elevated plus maze; 1 mg/kg) was “only a tendency” and the “number of bites, compared with diazepam 2 mg/kg” value (social interaction; 10 mg/kg) was “equal reduction”. For the same compound, the “number of pins, compared with diazepam 2 mg/kg” value (social interaction; 10 mg/kg) was “equal reduction”, the “reduction in freezing, context alone” value (fear induced freezing) was “effective in both scenarios” and the “reduction in freezing, context plus tone” value (fear induced freezing) was “effective in both scenarios”. For the same compound, the “number of living cells in anoxic cultures relative to control anoxic cultures” value [4] was 2 to 3 times, the “neuroprotection in treated animals” value (focal ischemia model; 0.1, 1.0, 10 mg/kg intra-peritoneal, no obvious dose dependence) was “Neuroprotection was observed in all animals” and the “ischemic damage to the hippocampus, especially retrospenial and piriform cortices, vs untreated ischemic animals” value (focal ischemia model; 0.1, 1.0, 10 mg/kg intra-peritoneal, prophylactic or therapeutic schedule) was “reduction in ischemic damage”. For the same compound, the “incidence of seizures following ischemic insult” value (focal ischemia model; 0.1-10 mg/kg intra-peritoneal, dose-dependent) was “reduced” and the “difference in neuronal cell number between ipsilateral and contralateral sides of the CA1 region” value (focal ischemia model; prophylactic or therapeutic treatment groups, 0.1, 1.0, 10 mg/kg) was “no significant difference”.
